Laboratory results: patent EP1388586A2, “Identification of broadly reactive DR restricted epitopes” (priority 1998, dated 1999)
Like-named read-outs stand apart in the source and are kept apart here. Each block holds one compound with its values, some of them ahead of it. Ends that are not written are not given here.

Legend:
DRB1*0301 (DR3w17) = target: T1, DRB1*0301 (DR3w17) (Homo sapiens, UniProt P01903+P01911, A100K/A102G/A103R/A169T/F55Y/I96L/K41T/L162R/M171V/P40S/Q125H/Q178H/Q39Y/R42S/S66N/T106N/T262R/W38E/Y61H); test: Class II peptide-binding assay, DR3 (pH 4.5);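 also: unlabeled peptide competing with a radiolabeled probe peptide for binding to affinity-purified HLA-DR3, IC50 regarded as an approximation of Kd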
T1 construct: used as sources of human HLA class II molecules; endogenous in cells; host or cells: MAT (EBV-transformed homozygous B cell line)
T1 sequence (P01903 26-254, other chains not shown): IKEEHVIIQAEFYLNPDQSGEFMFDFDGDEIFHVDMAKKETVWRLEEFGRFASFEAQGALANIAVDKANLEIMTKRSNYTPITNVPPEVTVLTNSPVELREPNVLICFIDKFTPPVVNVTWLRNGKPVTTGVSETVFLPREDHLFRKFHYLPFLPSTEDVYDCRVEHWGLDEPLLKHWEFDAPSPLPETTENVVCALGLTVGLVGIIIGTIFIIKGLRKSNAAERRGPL

DRB1*0101 (DR1) = target: T2, DRB1*0101 (DR1) (Homo sapiens, UniProt P01903+P01911, A100R/D57E/F55L/F60I/F76Y/I96L/L162R/M171V/P40L/Q125E/R42F/V115G/Y59C); test: Class II peptide-binding assay, DR1;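 also: competition assay: unlabeled test peptides inhibit binding of a radiolabeled probe peptide to purified DR, with half-maximal inhibition taken as an approximate dissociation constant Kd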
T2 construct: used as sources of human HLA class II molecules; endogenous in cells; host or cells: LG2 (EBV-transformed homozygous B cell line)

DRB1*0701 (DR7) = DRB1*0701 (DR7) (Homo sapiens, UniProt P01903+P01911, A100R/A102G/A103Q/D57E/D86V/E43K/F76Y/K127E/L162R/M171V/P40G/Q125H/Q99D/R33Q/R42Y/R54Q/S133A/S66F/T210M/V115G/Y107V/Y59L/Y89S); test: Class II peptide-binding assay, DR7;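 also: unlabeled peptides compete with an iodinated probe peptide for binding to affinity-purified HLA-DR at neutral pH, DR amount titered to bind a small tracer fraction, IC50 approximating Kd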
DRB5*0101 (DR2w2a) = target: T3, DRB5*0101 (DR2w2a) (Homo sapiens, UniProt P01903+Q30154); test: Class II peptide-binding assay, DR2w2a (DR2w2B2);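 also: competitive binding assay: unlabeled peptide inhibiting binding of a radiolabeled probe peptide to purified DR molecules at pH 7.0, IC50 approximating Kd, lower means stronger binding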
T3 construct: used as sources of human HLA class II molecules; endogenous in cells; host or cells: GM3107 (EBV-transformed homozygous B cell line)

DRB1*0401 (DR4w4) = target: T4, DRB1*0401 (DR4w4) (Homo sapiens, UniProt P01903+P01911, A100K/A169T/F76Y/I96L/K127E/L162R/M171V/N62H/P40V/Q125Y/R42H/S133A/S149N/S66Y/V115G/V209L/W38E); test: Class II peptide-binding assay, DR4w4;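 also: unlabeled test peptides compete with a radiolabeled probe peptide for binding to affinity-purified HLA-DR, with DR amount titrated to capture a small fraction of label, IC50 approximating Kd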
T4 construct: used as sources of human HLA class II molecules; endogenous in cells; host or cells: PREISS (EBV-transformed homozygous B cell line)

DRB1*1101 (DR5w11) = target: T5, DRB1*1101 (DR5w11) (Homo sapiens, UniProt P01903+P01911, A100R/A169T/A87E/I96F/K41T/L162R/M171V/P40S/Q125H/Q178H/Q39Y/Q99D/R42S/S66Y/T262R/V115G/W38E); test: Class II peptide-binding assay, DR5w11;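 also: competition by unlabeled test peptide against iodinated probe peptide binding to affinity-purified HLA-DR, class II amount titrated beforehand, half-maximal inhibitory concentration read as approximate Kd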
T5 construct: used as sources of human HLA class II molecules; endogenous in cells; host or cells: SWEIG (EBV-transformed homozygous B cell line)
T5 sequence (P01903 26-254, other chains not shown): as above

DRB10404 (DR4w14) = target: T6, DRB10404 (DR4w14) (Homo sapiens, UniProt P01903+P01911, A100R/A169T/F76Y/I96L/K127E/L162R/M171V/N62H/P40V/Q125Y/R42H/S133A/S149N/S66Y/V209L/W38E); test: Class II peptide-binding assay, DR4w14; details: read-out: DR4w14 nM (In IC50 Format); purified HLA DR4w14;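 also: unlabeled peptides compete with a radiolabeled probe for binding to affinity-purified HLA-DR, neutral pH, class II amount titrated to bind a small fraction of label, IC50 approximates Kd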
T6 construct: used as sources of human HLA class II molecules; endogenous in cells; host or cells: BIN40 (EBV-transformed homozygous B cell line)

[1] = read-out: In IC50 Format DR3, Table VIII
[2] = read-out: DR1 nM (In IC50 Format), purified HLA DR1
[3] = read-out: DR7 nM (In IC50 Format), purified HLA DR7
[4] = read-out: DR3 nM (In IC50 Format), purified HLA DR3
[5] = read-out: DR4w4 nM (In IC50 Format), purified HLA DR4w4
[6] = read-out: DR5w11 nM (In IC50 Format), purified HLA DR5w11
[7] = read-out: In IC50 Format DR3 nM, Table VIII, values in parentheses read as lower bounds

IC50 (DRB1*0301 (DR3w17); [1]): 10 µM
Compound: CC(C)C[C@H](NC(=O)[C@H](CCC(N)=O)NC(=O)[C@@H](NC(=O)[C@@H]1CCCN1)C(C)C)C(=O)N[C@@H](Cc1c[nH]c2ccccc12)C(=O)N[C@H](C(=O)N[C@@H](CC(=O)O)C(=O)N[C@@H](CO)C(=O)N[C@H](C(=O)N1CCC[C@H]1C(=O)N1CCC[C@H]1C(=O)N1CCC[C@H]1C(=O)NCC(=O)N[C@H](C(=O)N[C@@H](CCCNC(=N)N)C(=O)O)[C@@H](C)O)[C@@H](C)O)C(C)C [Peptide 39.0413]

IC50 (DRB1*0301 (DR3w17); [1]): > 120 µM
Compound: CC[C@H](C)[C@H](NC(=O)[C@H](C)NC(=O)[C@@H](N)CCSC)C(=O)N[C@@H](Cc1ccc(O)cc1)C(=O)N[C@@H](CCCCN)C(=O)N[C@@H](CCC(N)=O)C(=O)N[C@@H](CO)C(=O)N[C@@H](CCC(N)=O)C(=O)N[C@@H](Cc1c[nH]cn1)C(=O)N[C@@H](CCSC)C(=O)N[C@H](C(=O)N[C@@H](CCC(=O)O)C(=O)N[C@H](C(=O)N[C@H](C(=O)N[C@@H](CCCNC(=N)N)C(=O)O)C(C)C)C(C)C)[C@@H](C)O [Peptide 39.0414]

IC50 (DRB1*0301 (DR3w17); [1]): 76.9 µM
Compound: CC(C)C[C@H](NC(=O)[C@H](CC(N)=O)NC(=O)CNC(=O)[C@@H](N)CCC(=O)O)C(=O)N[C@@H](CCCNC(=N)N)C(=O)N[C@H](C(=O)N[C@@H](CCC(=O)O)C(=O)N[C@@H](Cc1ccc(O)cc1)C(=O)N[C@@H](CC(C)C)C(=O)N[C@@H](CC(=O)O)C(=O)N[C@@H](CC(=O)O)C(=O)N[C@@H](CCCNC(=N)N)C(=O)N[C@@H](CC(N)=O)C(=O)N[C@H](C(=O)N[C@@H](Cc1ccccc1)C(=O)O)[C@@H](C)O)C(C)C [Peptide 39.0417]

IC50 (DRB1*0301 (DR3w17); [1]): 100 µM
Compound: CC[C@H](C)[C@H](NC(=O)[C@@H](NC(=O)[C@@H](N)CC(C)C)[C@@H](C)O)C(=O)N[C@H](C(=O)N[C@H](C(=O)N[C@@H](CC(C)C)C(=O)N[C@@H](CCC(=O)O)C(=O)N[C@@H](CC(=O)O)C(=O)N[C@@H](CO)C(=O)N[C@@H](CO)C(=O)NCC(=O)N[C@@H](CC(N)=O)C(=O)N[C@@H](CC(C)C)C(=O)N[C@@H](CC(C)C)C(=O)NCC(=O)O)[C@@H](C)O)[C@@H](C)CC [Peptide 39.0421]

IC50 (DRB1*0301 (DR3w17); [1]): > 120 µM
Compound: CC[C@H](C)[C@H](NC(=O)[C@H](CCC(N)=O)NC(=O)[C@H](CC(C)C)NC(=O)[C@@H](NC(=O)[C@H](Cc1ccccc1)NC(=O)[C@H](Cc1ccc(O)cc1)NC(=O)[C@H](CCC(=O)O)NC(=O)CNC(=O)[C@H](CC(=O)O)NC(=O)[C@H](CC(C)C)NC(=O)[C@@H]1CCCN1C(=O)[C@H](CCCCN)NC(=O)[C@@H](N)CCCCN)[C@@H](C)O)C(=O)N[C@@H](CCCNC(=N)N)C(=O)NCC(=O)O [Peptide 39.0422]

IC50 (DRB1*0101 (DR1); read-out: In IC50 Format DR1, Table VIII): 17.2 nM | IC50 (DRB1*0701 (DR7); read-out: In IC50 Format DR7, Table VIII): 1000 nM | IC50 (DRB5*0101 (DR2w2a); read-out: In IC50 Format DR2w2β2, Table VIII): 0.25 µM | IC50 (DRB1*0301 (DR3w17); [1]): 60 µM | IC50 (DRB1*0401 (DR4w4); read-out: In IC50 Format DR4w4, Table VIII): 5.8 nM | IC50 (DRB1*1101 (DR5w11); read-out: In IC50 Format DR5w11, Table VIII): 133 nM
Compound: CC[C@H](C)[C@H](NC(=O)[C@H](CC(N)=O)NC(=O)[C@H](CCCCN)NC(=O)[C@H](Cc1ccccc1)NC(=O)[C@H](Cc1ccccc1)NC(=O)[C@H](Cc1c[nH]cn1)NC(=O)[C@@H](NC(=O)[C@@H](NC(=O)[C@@H]1CCCN1C(=O)[C@H](CC(N)=O)NC(=O)[C@H](CCC(=O)O)NC(=O)[C@H](CC(=O)O)NC(=O)[C@H](CCC(N)=O)NC(=O)[C@@H](NC(=O)[C@H](CCCNC(=N)N)NC(=O)CN)[C@@H](C)O)C(C)C)C(C)C)C(=O)N[C@H](C(=O)N[C@H](C(=O)N1CCC[C@H]1C(=O)N[C@@H](CCCNC(=N)N)C(=O)O)[C@@H](C)O)C(C)C [Peptide 507.02]

Compound: CC[C@H](C)[C@H](NC(=O)[C@H](CO)NC(=O)[C@H](CCC(=O)O)NC(=O)[C@H](CC(C)C)NC(=O)[C@H](C)NC(=O)[C@@H](N)CC(=O)O)C(=O)N[C@@H](CCSC)C(=O)N[C@H](C(=O)N[C@H](C(=O)N[C@@H](CCCCN)C(=O)N[C@@H](CO)C(=O)N[C@H](C(=O)N[C@@H](CO)C(=O)N[C@@H](Cc1ccccc1)C(=O)N[C@@H](CCCNC(=N)N)C(=O)O)C(C)C)[C@@H](C)O)[C@@H](C)O [Peptide 774.00]
IC50 (DRB1*0101 (DR1); purified HLA DR1, read-out: DR1 nM (In IC50 Format)): 385 nM | IC50 (DRB1*0701 (DR7); purified HLA DR7, read-out: DR7 nM (In IC50 Format)): 84.1 nM | IC50 (DRB5*0101 (DR2w2a); purified HLA DR2w2β2, read-out: DR2w2B2 nM (In IC50 Format)): 20 µM | IC50 (DRB1*0301 (DR3w17); purified HLA DR3, read-out: DR3 nM (In IC50 Format)): 33.3 µM | IC50 (DRB1*0401 (DR4w4); purified HLA DR4w4, read-out: DR4w4 nM (In IC50 Format)): 110 nM

Compound: CSCC[C@H](N)C(=O)NCC(=O)N[C@@H](CCC(N)=O)C(=O)N[C@@H](CC(N)=O)C(=O)N[C@@H](CC(C)C)C(=O)N[C@@H](CO)C(=O)N[C@H](C(=O)N[C@@H](CO)C(=O)N[C@@H](CC(N)=O)C(=O)N1CCC[C@H]1C(=O)N[C@@H](CC(C)C)C(=O)NCC(=O)N[C@@H](Cc1ccccc1)C(=O)N[C@@H](Cc1ccccc1)C(=O)N1CCC[C@H]1C(=O)N[C@@H](CC(=O)O)C(=O)N[C@@H](Cc1c[nH]cn1)C(=O)O)[C@@H](C)O [Peptide 800.01]
IC50 (DRB1*0101 (DR1); [2]): 94.3 nM | IC50 (DRB1*0701 (DR7); [3]): 154 nM | IC50 (DRB10404 (DR4w14)): 2000 nM | IC50 (DRB1*0301 (DR3w17); [4]): 6.82 µM | IC50 (DRB1*0401 (DR4w4); [5]): 68.8 nM | IC50 (DRB1*1101 (DR5w11); [6]): 2000 nM

Compound: CSCC[C@H](NC(=O)[C@H](CC(C)C)NC(=O)[C@H](CCC(=O)O)NC(=O)CNC(=O)[C@H](Cc1c[nH]c2ccccc12)NC(=O)[C@@H](N)CS)C(=O)N[C@H](C(=O)N[C@@H](CC(C)C)C(=O)N[C@@H](C)C(=O)N[C@H](C(=O)N[C@@H](Cc1c[nH]c2ccccc12)C(=O)N[C@H](C(=O)NCC(=O)N[C@H](C(=O)N[C@@H](CC(N)=O)C(=O)N[C@@H](CC(C)C)C(=O)N[C@@H](CCC(=O)O)C(=O)N[C@@H](CC(=O)O)C(=O)O)C(C)C)C(C)C)[C@@H](C)O)[C@@H](C)O [Peptide 802.02]
IC50 (DRB1*0101 (DR1); [2]): 357 nM | IC50 (DRB1*0701 (DR7); [3]): 6250 nM | IC50 (DRB10404 (DR4w14)): 90.7 nM | IC50 (DRB1*0301 (DR3w17); [4]): 100 µM | IC50 (DRB1*0401 (DR4w4); [5]): 738 nM | IC50 (DRB1*1101 (DR5w11); [6]): 5000 nM

IC50 (DRB1*0301 (DR3w17); [7]): 40 µM
Compound: AIKVLRENTSPKANK [Peptide 39.0362]

IC50 (DRB1*0301 (DR3w17); [7]): > 120 µM
Compound: DLTLGLEPSEEEAPR [Peptide 39.0377]

IC50 (DRB1*0301 (DR3w17); [7]): > 120 µM
Compound: DNLYYWDQDPPERGA [Peptide 39.0383]

IC50 (DRB1*0301 (DR3w17); [7]): > 111 µM
Compound: DTILWKDIFHKNNQL [Peptide 39.0342]
